In ChEMBL document CHEMBL1121689, “A dopamine receptor model and its application in the design of a new class of rigid pyrrolo[2,3-g]isoquinoline antipsychotics” (1981):

Experiments:
Rattus norvegicus [1] = test: Dose required for producing 50% block of avoidance responding in rats after peroral administration; type: functional
Rattus norvegicus [2] = test: Dose required for producing 20% block of escape responding in rats after peroral administration; type: functional

Row | Compound | ABD50 (Rattus norvegicus [1]) | EBD20 (Rattus norvegicus [2])
1 | CCc1c(C)[nH]c2c1C(=O)[C@@H]1CN(C)CC[C@H]1C2.Cl | >6 mg/kg | –
2 | CCc1c(C)[nH]c2c1C(=O)[C@H]1CN(C)CC[C@@H]1C2.Cl | 0.49 mg/kg | 3.6 mg/kg
3 | CCc1c(C)[nH]c2c1C(=O)C1CN(C)CCC1C2.Cl (racemic) | 0.72 mg/kg | 9.8 mg/kg
4 | O=C(CCCN1CCC(O)(c2ccc(Cl)cc2)CC1)c1ccc(F)cc1 [HALOPERIDOL] | 0.35 mg/kg | 2.7 mg/kg
5 | CCc1c(C)[nH]c2c1C(=O)C(CN1CCOCC1)CC2 (centres undefined) [MOLINDONE] | 3.6 mg/kg | 17.1 mg/kg
